# Results from article PMC4189421, “Induction of Oligodendrocyte Differentiation and In Vitro Myelination by Inhibition of Rho-Associated Kinase” (ASN NEURO, 2014).
# How the values were obtained:
# mouse Nph-OPCs = experiment: Cell proliferation as number of Hoechst-labeled nuclei; assay type: cell-based; conditions: 1 µM; n = 3 in triplicate wells; DMSO: 522 ± 126
# Text: To determine the effects of ROCK inhibition on OPCs, we developed a high-content image morphological analysis of OPC differentiation using mouse embryonic neural progenitor-derived OPCs (Nph-OPCs). Neural progenitors grow as nonadherent spheroids known as neurospheres (Nph; [Chojnacki & Weiss, 2008]; [Tropepe et al., 1999]), which are considered to be a mixed population of neural stem cells and progenitors of the CNS ([Rao, 1999]; [Zhou & Chiang, 1998]). These cells have been previously used in multiple published studies for the generation of high-yield, high-purity cultures of OPCs from rodents ([Calaora et al., 2001]; [[…] al., 1997]; [Pedraza et al., 2008]). After 24 hr of plating on PDL-coated tissue culture plastic, Nph-OPCs were treated as indicated with differentiation stimuli and further incubated for 72 hr. […] Four images per well were analyzed using a neurite outgrowth module (Molecular Devices, Sunnyvale, CA). We quantified the number of branches and total outgrowth per cell (Figure 1). […] Additionally, nuclear staining by Hoechst allowed the accurate association of branches and processes to their corresponding cell bodies and permitted quantification of total cell numbers in each well. […]
# [1] = test system: MYPT1 phosphorylation in mNph-OPC; experiment: MYPT1 phosphorylation (sandwich ELISA, western blot) as ROCK target engagement; conditions: 100 µM, 4-hr mNph-OPC treatment
# Method: Tris-glycine acrylamide-bysacrylamide gradient gel electrophoresis was performed as follows: After washing the cells with ice-cold PBS, protein lysates were made by adding 50 µl of PhosphoSafe extraction reagent (EMD Millipore) supplemented with antiprotease cocktail (cOmplete; Roche, Branford, CT) onto each 100-mm^2 cell culture plate. After detaching the cells with the help of a cell scraper and disrupting cell membranes by sonication, the protein extracts were centrifuged (10,000 g, 10 min, 4℃) and the supernatants separated. Protein content was measured by the BCA protein determination method (Biorad, Hercules, CA), and 30 µg of total protein was mixed with SDS sample buffer (Laemmli) supplemented with 1% β-mercaptoethanol. After heating the samples to 70℃ for 10 min, they were loaded onto 4% to 20% acryl-bysacrylamide gradient gels, and electrophoresis was carried out at 120 volts with constant amperage.
# Resolved proteins were then transferred onto nitrocellulose membranes using the iBlot methodology and device (Life technologies). […] Secondary detection was performed using Li-Cor IRDye secondary anti-mouse and anti-rabbit antibodies, and near-infrared signal was detected by Li-Cor’s Odyssey imaging system.
# We assessed MYPT1 phosphorylation in Nph-OPCs treated for 4 hr with ROCK inhibitors in a dose-response experiment and using a sandwich ELISA as a measuring method (MBL International).
# rat mixed glial OPCs = experiment: Myelin protein expression in rat mixed glia-derived OPCs (qPCR, MBP ELISA); assay type: cell-based
# Method: Rat postnatal OPCs were obtained as described elsewhere according to the original procedure of [McCarthy and […] (1980)]. In brief, postnatal Day 1 rat pups were sacrificed, and cerebral cortices dissected and mechanically dissociated in medium composed of DMEM, 10% heat inactivated fetal bovine serum, and 5 μg/ml penicillin/streptomycin. Dissociated cells were plated and maintained in 75-cm^2 culture flasks for 10 days, replenishing with fresh media at Days 3 and 7. At Day 10, the flasks were shaken on a heated (37°C) shaker for 1 hr at 110 rpm to separate loosely attached microglial cells. The medium was replenished, and the cells incubated for the remainder of the day. To dislodge OPCs from the astrocyte monolayer, flasks were shaken overnight (210 rpm, 37°C). […] Cells were then plated on PDL-coated tissue culture plastic and treated with test compounds. […] The results are presented as specific mRNA expression relative to either β-actin or β-tubulin, used as internal controls as indicated. OPCs isolated from rat mixed glial cultures are known to mature readily in the absence of mitogens achieving a premyelinating OL stage as determined by the expression of the cell surface sulfatide O4, and the myelin proteins MBP and PLP among others ([Armstrong, 1998]; [Barbarese & Pfeiffer, 1981]; [[…], 1999]; [Jung-[…], Schumacher, Robel, & Baulieu, 1996]; [Konola, Tyler, Yamamura, & Lees, 1991]). They also display marked morphological changes, progressing from bipolar to multibranched cells generating membranous structures, and probably represent a later developmental stage than Nph-OPC. In rat mixed glial OPCs, we measured myelin protein expression at the RNA level by qPCR and MBP production by ELISA (MBL International, Woburn, MA).
# [2] = test system: mouse neurosphere-derived oligodendrocyte precursor cells (Nph-OPCs); experiment: Morphology-based OPC differentiation assay (branches, outgrowth; high-content imaging); assay type: cell-based; conditions: mNph-OPC, 72 hr treatment, dose-response
# Method: Neurospheres (Nph) were prepared from embryos at 14.5 days of gestation obtained from timed pregnant females of C57/Bl6 mice, as previously described ([Kornblum, Yanni, Easterday, & Seroogy, 2000]; [Pedraza, Monk, Lei, Hao, & Macklin, 2008]). In brief, after separation of meninges and cerebellum, cerebrum tissue was mechanically triturated with a 1-ml micropipette until total tissue dissociation was achieved, filtered through a 70 -µm cell strainer (Fisher Scientific, Pittsburgh, PA), and plated in 25-cm^2 plastic culture flasks (2 brains/flask). Nph proliferation media (NPM) consisted of Dulbecco’s Modified Eagle Medium (DMEM)/F12, B27 neuronal supplement (Gibco, Baltimore, MD) and 10 ng/ml […] (EGF; Sigma, St. Louis, MO). After 48 to 72 hr, floating Nphs were passaged at a 1 : 1 ratio into 75-cm^2 culture flasks. After a further 48 to 72 hr, they were passaged into 150-cm^2 flasks. Subsequent passages were performed every 3 to 4 days at a ratio of 1 : 2 or 1 : 3 in the same media, and Nph were used to generate OPCs for no more than 12 passages.
# OPCs were generated by chemical disaggregation of Nph with a mouse neural progenitor dissociation kit following the manufacturer instructions (NeuroCult, StemCell Technologies, AB, Canada). The single-cell suspension was then filtered through a 40 -µm cell strainer and plated on poly-D-lysine (PDL)-coated plates. […]
# To determine the effects of ROCK inhibition on OPCs, we developed a high-content image morphological analysis of OPC differentiation using mouse embryonic neural progenitor-derived OPCs (Nph-OPCs). […] Four images per well were analyzed using a neurite outgrowth module (Molecular Devices, Sunnyvale, CA). We quantified the number of branches and total outgrowth per cell (Figure 1). […] Additionally, nuclear staining by Hoechst allowed the accurate association of branches and processes to their corresponding cell bodies and permitted quantification of total cell numbers in each well.
# ROCKII = target: T1, ROCKII (Homo sapiens, UniProt O75116); conditions: read-out: Activity, IC50 ROCKII, Table 1, ref Goodman et al., 2007, Nichols et al., 2009, heading: Activity; cited from earlier work
# T1 construct: purchased EMD Millipore
# T1 sequence (O75116 whole entry, species assumed): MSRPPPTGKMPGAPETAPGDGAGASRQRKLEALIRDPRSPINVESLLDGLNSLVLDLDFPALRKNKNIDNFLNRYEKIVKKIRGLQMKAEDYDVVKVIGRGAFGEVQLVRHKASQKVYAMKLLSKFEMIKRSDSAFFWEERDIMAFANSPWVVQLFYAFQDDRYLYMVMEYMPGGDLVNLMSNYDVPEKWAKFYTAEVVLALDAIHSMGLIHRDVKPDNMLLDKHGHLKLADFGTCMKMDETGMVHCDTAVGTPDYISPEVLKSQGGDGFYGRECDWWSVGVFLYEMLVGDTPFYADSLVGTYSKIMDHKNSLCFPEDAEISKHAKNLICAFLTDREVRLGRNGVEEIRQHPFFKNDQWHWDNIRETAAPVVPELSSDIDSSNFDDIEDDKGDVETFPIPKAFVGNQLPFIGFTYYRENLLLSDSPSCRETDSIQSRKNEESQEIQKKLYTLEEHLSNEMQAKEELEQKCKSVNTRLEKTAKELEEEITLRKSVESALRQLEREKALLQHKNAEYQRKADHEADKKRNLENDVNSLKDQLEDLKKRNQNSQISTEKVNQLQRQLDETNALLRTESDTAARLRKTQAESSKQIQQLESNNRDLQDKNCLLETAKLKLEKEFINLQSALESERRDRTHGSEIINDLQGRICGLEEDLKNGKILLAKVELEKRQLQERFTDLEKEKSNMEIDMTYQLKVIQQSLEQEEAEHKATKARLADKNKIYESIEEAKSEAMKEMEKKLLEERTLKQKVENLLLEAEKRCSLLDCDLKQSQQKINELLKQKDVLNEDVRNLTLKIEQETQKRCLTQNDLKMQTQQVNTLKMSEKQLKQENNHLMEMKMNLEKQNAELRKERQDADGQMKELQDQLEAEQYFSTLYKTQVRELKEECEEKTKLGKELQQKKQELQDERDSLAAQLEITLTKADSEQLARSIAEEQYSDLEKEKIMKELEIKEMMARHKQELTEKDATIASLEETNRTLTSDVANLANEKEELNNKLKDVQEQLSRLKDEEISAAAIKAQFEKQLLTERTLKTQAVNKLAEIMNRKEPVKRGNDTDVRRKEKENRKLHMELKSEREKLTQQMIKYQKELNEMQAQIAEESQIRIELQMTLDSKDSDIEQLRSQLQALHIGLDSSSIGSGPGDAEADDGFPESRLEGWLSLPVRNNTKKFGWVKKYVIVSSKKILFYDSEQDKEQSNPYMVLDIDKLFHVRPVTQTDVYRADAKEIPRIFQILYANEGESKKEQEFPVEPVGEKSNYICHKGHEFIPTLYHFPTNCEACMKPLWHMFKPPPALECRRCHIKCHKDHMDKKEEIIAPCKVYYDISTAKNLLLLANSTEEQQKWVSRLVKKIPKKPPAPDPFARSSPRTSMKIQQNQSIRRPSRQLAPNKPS
# ROCKI = target: T2, ROCKI (Homo sapiens, UniProt Q13464); conditions: read-out: Activity, IC50 ROCKI, Table 1, ref Goodman et al., 2007, Nichols et al., 2009, heading: Activity; cited from earlier work
# T2 construct: purchased EMD Millipore
# T2 sequence (Q13464 whole entry, species assumed): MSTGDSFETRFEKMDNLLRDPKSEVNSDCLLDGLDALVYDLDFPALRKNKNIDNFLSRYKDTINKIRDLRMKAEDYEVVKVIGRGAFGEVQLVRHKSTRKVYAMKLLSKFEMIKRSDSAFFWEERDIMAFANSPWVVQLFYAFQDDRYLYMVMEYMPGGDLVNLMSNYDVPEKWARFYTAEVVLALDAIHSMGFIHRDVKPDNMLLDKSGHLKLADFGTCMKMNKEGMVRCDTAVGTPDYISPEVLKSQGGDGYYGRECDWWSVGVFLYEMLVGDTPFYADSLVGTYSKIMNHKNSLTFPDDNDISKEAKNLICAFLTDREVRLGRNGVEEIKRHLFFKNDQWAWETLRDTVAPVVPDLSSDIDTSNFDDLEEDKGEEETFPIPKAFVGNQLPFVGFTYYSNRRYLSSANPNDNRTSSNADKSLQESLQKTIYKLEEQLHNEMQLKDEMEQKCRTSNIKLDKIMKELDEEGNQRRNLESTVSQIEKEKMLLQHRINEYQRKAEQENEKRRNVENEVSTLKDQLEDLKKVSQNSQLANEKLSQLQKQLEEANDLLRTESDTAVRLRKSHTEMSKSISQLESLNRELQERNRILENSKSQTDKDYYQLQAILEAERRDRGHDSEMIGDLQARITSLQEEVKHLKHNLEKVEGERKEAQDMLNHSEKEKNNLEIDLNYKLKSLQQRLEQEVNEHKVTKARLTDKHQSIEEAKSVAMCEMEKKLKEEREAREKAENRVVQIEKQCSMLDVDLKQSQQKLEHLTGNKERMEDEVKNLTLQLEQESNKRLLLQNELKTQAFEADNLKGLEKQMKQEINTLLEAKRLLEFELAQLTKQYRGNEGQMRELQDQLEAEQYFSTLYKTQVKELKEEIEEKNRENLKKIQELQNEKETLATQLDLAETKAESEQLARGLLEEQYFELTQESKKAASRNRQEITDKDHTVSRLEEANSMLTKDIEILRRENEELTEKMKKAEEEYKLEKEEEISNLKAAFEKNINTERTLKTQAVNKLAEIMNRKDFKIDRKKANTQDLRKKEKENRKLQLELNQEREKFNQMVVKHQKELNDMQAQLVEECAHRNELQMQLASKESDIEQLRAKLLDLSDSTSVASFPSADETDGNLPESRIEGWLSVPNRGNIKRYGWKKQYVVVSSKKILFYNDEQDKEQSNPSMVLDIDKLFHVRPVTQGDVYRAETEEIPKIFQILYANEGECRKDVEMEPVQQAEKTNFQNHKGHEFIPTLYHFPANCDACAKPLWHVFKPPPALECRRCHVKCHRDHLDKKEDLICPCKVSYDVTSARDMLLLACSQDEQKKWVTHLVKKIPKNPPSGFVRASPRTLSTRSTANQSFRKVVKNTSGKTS
Structure (SMILES),Number of Hoechst-labeled nuclei (mouse Nph-OPCs) [cells/well],Decrease of MYPT1 phosphorylation (ELISA) [1] [%],"Expression of MBP, PLP, and MOG mRNAs (qPCR) (rat mixed glial OPCs; 3 days maturation +4 days treatment, concentrations as low as 0.1 µM)",MBP at the protein level (ELISA) (rat mixed glial OPCs; treatments at 24 hr and 72 hr after plating),OPC differentiation effect (processes and branches) [2],"IC50 ([2]; Mus musculus, Oligodendrocyte precursor cell, read-out: IC50, generation of branches in OPC differentiation assay) [nM]",IC50 (ROCKII) [nM],IC50 (ROCKI) [nM]
O=S(=O)(c1cccc2cnccc12)N1CCCNCC1 [Fasudil],598 ± 21,60,significant increase,increased expression,minor differentiation effect,,,
"CC1=C(C(=O)Nc2cc3cn[nH]c3cc2F)C(c2ccc(C(F)(F)F)cc2)CC(=O)N1 (centres unmarked) [GSK 429286, 4-[4-(trifluoromethyl)phenyl]-N-(6-fluoro-1H-indazol-5-yl)-2-methyl-6-oxo-1,4,5,6-tetrahydro-3-pyridinecarboxamide]",,,,,,2300,48,14
